Assay results reported in patent US10421761B2, “Compounds for kinase modulation, and indications therefor” (Plexxikon Inc., priority 2013, dated 2019).

System: B9 cells
Conditions: Repl. 1; B9 cells

SMILES: CCCS(=O)(=O)Nc1ccc(F)c(C(=O)c2c[nH]c3ncc(-c4ccc(Cl)cc4)cc23)c1F [vemurafenib]
- probe 1426300_at response, Alcam (activated leukocyte cell adhesion molecule): 2.35
- probe 1426306_a_at response, LOC100046560 /// Maged2 (similar to melanoma antigen family D, 2 /// melanoma antigen, family D, 2): 2.18
- probe 1426708_at response, Antxr2 (anthrax toxin receptor 2): 2.19
- probe 1426806_at response, Obfc2a (oligonucleotide/oligosaccharide-binding fold containing 2A): 2.33
- probe 1426848_at response, LOC100047481 /// Sec24b (similar to SEC24 related gene family, member B (S. cerevisiae) /// Sec24 related gene family, member B (S. cerevisiae)): 0.69
- probe 1426972_at response, Sec24d (Sec24 related gene family, member D (S. cerevisiae)): 2.06
- probe 1427278_at response, Clip4 (CAP-GLY domain containing linker protein family, member 4): 1.98
- probe 1427364_a_at response, Odc1 (ornithine decarboxylase, structural 1): 2.73
- probe 1427512_a_at response, Lama3 (laminin, alpha 3): 2.61
- probe 1427527_a_at response, Pthlh (parathyroid hormone-like peptide): 2.73
- probe 1427885_at response, Pold4 (polymerase (DNA-directed), delta 4): 2.20
- probe 1428114_at response, Slc14a1 (solute carrier family 14 (urea transporter), member 1): 2.61
- probe 1428195_at response, Ahcyl2 (S-adenosylhomocysteine hydrolase-like 2): 2.42
- probe 1428228_at response, Pgm3 (phosphoglucomutase 3): 2.18
- probe 1428419_at response, 5430411K18Rik (RIKEN cDNA 5430411K18 gene): 2.16
- probe 1428851_at response, 1300014I06Rik (RIKEN cDNA 1300014I06 gene): 2.30
- probe 1429700_at response, 3110040M04Rik (RIKEN cDNA 3110040M04 gene): 3.18
- probe 1429844_at response, 2310043J07Rik (RIKEN cDNA 2310043J07 gene): 0.52
- probe 1430010_at response, Ncapd2 (non-SMC condensin I complex, subunit D2): 0.43
- probe 1430567_at response, Spink5 (serine peptidase inhibitor, Kazal type 5): 0.46
- probe 1430623_s_at response, Obfc2a (oligonucleotide/oligosaccharide-binding fold containing 2A): 2.11
- probe 1430700_a_at response, Pla2g7 (phospholipase A2, group VII (platelet-activating factor acetylhydrolase, plasma)): 2.36
- probe 1431416_a_at response, Jam2 (junction adhesion molecule 2): 2.12
- probe 1431422_a_at response, Dusp14 (dual specificity phosphatase 14): 2.14
- probe 1431611_a_at response, Cadm1 (cell adhesion molecule 1): 2.15
- probe 1431688_at response, LOC73899 (hypothetical LOC73899): 2.56
- probe 1431691_a_at response, Rab31 (RAB31, member RAS oncogene family): 1.98
- probe 1433909_at response, Syt17 (synaptotagmin XVII): 2.02
- probe 1434059_at response, B230312A22Rik (RIKEN cDNA B230312A22 gene): 2.26
- probe 1434092_at response, Atg9b (ATG9 autophagy related 9 homolog B (S. cerevisiae)): 2.04
- probe 1434109_at response, Sh3bgrl2 (SH3 domain binding glutamic acid-rich protein like 2): 2.50
- probe 1434252_at response, Tmcc3 (transmembrane and coiled coil domains 3): 1.99
- probe 1434601_at response, Amigo2 (adhesion molecule with Ig like domain 2): 2.11
- probe 1434957_at response, Cdon (cell adhesion molecule-related/down-regulated by oncogenes): 0.44
- probe 1435066_at response, Pitpnc1 (phosphatidylinositol transfer protein, cytoplasmic 1): 2.04
- probe 1435176_a_at response, Id2 (inhibitor of DNA binding 2): 0.44
- probe 1435330_at response, Pyhin1 (pyrin and HIN domain family, member 1): 2.34
- probe 1435331_at response, Pyhin1 (pyrin and HIN domain family, member 1): 3.91
- probe 1435460_at response, Prkg2 (protein kinase, cGMP-dependent, type II): 2.07
- probe 1435695_a_at response, Ggct (gamma-glutamyl cyclotransferase): 2.16
- probe 1436100_at response, Sh2d5 (SH2 domain containing 5): 2.12
- probe 1436329_at response, Egr3 (early growth response 3): 2.75
- probe 1436584_at response, Spry2 (sprouty homolog 2 (Drosophila)): 3.28
- probe 1436659_at response, Dclk1 (doublecortin-like kinase 1): 2.44
- probe 1436917_s_at response, Gpsm1 (G-protein signalling modulator 1 (AGS3-like, C. elegans)): 2.22
- probe 1436944_x_at response, Pisd /// Pisd-ps1 ///Pisd-ps3 (phosphatidylserine decarboxylase /// phosphatidylserine decarboxylase, pseudogene 1 /// phosphatidylserine decarboxylase, pseudogene 3): 0.53
- probe 1437092_at response, Clip4 (CAP-GLY domain containing linker protein family, member 4): 2.37
- probe 1437100_x_at response, Pim3 (proviral integration site 3): 2.03
- probe 1437199_at response: 4.17
- probe 1437271_at response, Clcf1 (cardiotrophin-like cytokine factor 1): 2.09
- probe 1437486_at response, Gprc5a (G protein-coupled receptor, family C, group 5, member A): 2.49
- probe 1437982_x_at response, Cox15 (COX15 homolog, cytochrome c oxidase assembly protein (yeast)): 0.51
- probe 1438038_at response, 4930402H24Rik (RIKEN cDNA 4930402H24 gene): 2.10
- probe 1438664_at response, Prkar2b (protein kinase, cAMP dependent regulatory, type II beta): 0.44
- probe 1438699_at response, Srd5a1 (steroid 5 alpha-reductase 1): 1.89
- probe 1439016_x_at response, Sprr2a (small proline-rich protein 2A): 0.40
- probe 1439109_at response, Ccdc68 (coiled-coil domain containing 68): 0.45
- probe 1439434_x_at response, Sh2d5 (SH2 domain containing 5): 2.06
- probe 1439797_at response, Ppard (peroxisome proliferator activator receptor delta): 2.09
- probe 1439878_at response, Ivl (involucrin): 3.09
- probe 1440169_x_at response, Ifnar2 (interferon (alpha and beta) receptor 2): 0.53
- probe 1440559_at response, Hmga2-ps1 (high mobility group AT-hook 2, pseudogene 1): 3.39
- probe 1441315_s_at response, Slc19a2 (solute carrier family 19 (thiamine transporter), member 2): 2.46
- probe 1441917_s_at response, Tmem40 (transmembrane protein 40): 2.00
- probe 1442350_at response: 2.22
- probe 1442363_at response, 1110012J17Rik (RIKEN cDNA 1110012J17 gene): 2.08
- probe 1443536_at response, Slc7a11 (solute carrier family 7 (cationic amino acid transporter, y+ system), member 11): 0.39
- probe 1445758_at response: 0.47
- probe 1446791_at response, Pi15 (peptidase inhibitor 15): 1.12
- probe 1447661_at response: 0.53
- probe 1447845_s_at response, Vnn1 (vanin 1): 0.46
- probe 1448364_at response, Ccng2 (cyclin G2): 2.30
- probe 1448532_at response, Prl8a9 (prolactin family8, subfamily a, member 9): 2.70
- probe 1448562_at response, Upp1 (uridine phosphorylase 1): 2.68
- probe 1448613_at response, Ecm1 (extracellular matrix protein 1): 2.00
- probe 1448617_at response, Cd53 (CD53 antigen): 2.24
- probe 1448810_at response, Gne (glucosamine): 2.16
- probe 1448855_at response, Rassf1 (Ras association (RalGDS/AF-6) domain family member 1): 1.97
- probe 1448894_at response, Akr1b8 (aldo-keto reductase family 1, member B8): 2.01
- probe 1448978_at response, Ngef (neuronal guanine nucleotide exchange factor): 3.21
- probe 1449038_at response, Hsd11b1 (hydroxysteroid 11-beta dehydrogenase 1): 2.96
- probe 1449125_at response, Tnfaip8l1 (tumor necrosis factor, alpha-induced protein 8-like 1): 2.14
- probe 1449133_at response, Sprr1a (small proline-rich protein 1A): 2.53
- probe 1449268_at response, Gfpt1 (glutamine fructose-6-phosphate transaminase 1): 2.82
- probe 1449297_at response, Casp12 (caspase 12): 0.41
- probe 1449334_at response, Timp3 (tissue inhibitor of metalloproteinase 3): 0.43
- probe 1449367_at response, Trex2 (three prime repair exonuclease 2): 4.45
- probe 1449408_at response, Jam2 (junction adhesion molecule 2): 2.04
- probe 1449545_at response, Fgf18 (fibroblast growth factor 18): 3.88
- probe 1449965_at response, Mcpt8 (mast cell protease 8): 2.83
- probe 1450241_a_at response, Evi2a (ecotropic viral integration site 2a): 4.78
- probe 1450262_at response, Clcf1 (cardiotrophin-like cytokine factor 1): 2.62
- probe 1450276_a_at response, Scin (scinderin): 2.73
- probe 1450376_at response, Mxi1 (Max interacting protein 1): 2.20
- probe 1450430_at response, Mrc1 (mannose receptor, C type 1): 2.66
- probe 1450501_at response, Itga2 (integrin alpha 2): 3.02
- probe 1450791_at response, Nppb (natriuretic peptide precursor type B): 4.55
- probe 1450976_at response, Ndrg1 (N-myc downstream regulated gene 1): 2.23
- probe 1451006_at response, Xdh (xanthine dehydrogenase): 0.40
- probe 1451308_at response, Elovl4 (elongation of very long chain fatty acids (FEN1/Elo2, SUR4/Elo3, yeast)-like 4): 2.50
- probe 1451446_at response, Antxr1 (anthrax toxin receptor 1): 0.41
- probe 1451501_a_at response, Ghr (growth hormone receptor): 2.21
- probe 1451529_at response, Sgtb (small glutamine-rich tetratricopeptide repeat (TPR)-containing, beta): 1.91
- probe 1451798_at response, Il1rn (interleukin 1 receptor antagonist): 3.05
- probe 1452058_a_at response, Rnfl1 (ring finger protein 11): 2.07
- probe 1452087_at response, Epsti1 (epithelial stromal interaction 1 (breast)): 2.20
- probe 1452203_at response, Obfc2a (oligonucleotide/oligosaccharide-binding fold containing 2A): 2.07
- probe 1452521_a_at response, Plaur (plasminogen activator, urokinase receptor): 2.33
- probe 1453055_at response, Sema6d (sema domain, transmembrane domain (TM), and cytoplasmic domain, (semaphorin) 6D): 3.32
- probe 1453278_a_at response, Clip4 (CAP-GLY domain containing linker protein family, member 4): 2.00
- probe 1453345_at response, Nipal1 (NIPA-like domain containing 1): 3.86
- probe 1454048_a_at response, 4931408A02Rik /// LOC630876 (RIKEN cDNA 4931408A02 gene /// similar to Protein C21orf63 homolog precursor): 0.40
- probe 1454254_s_at response, 1600029D21Rik (RIKEN cDNA 1600029D21 gene): 2.37
- probe 1454649_at response, Srd5a1 (steroid 5 alpha-reductase 1): 2.02
- probe 1454699_at response, LOC100047324 /// Sesn1 (similar to Sesn1 protein /// sestrin 1): 0.50
- probe 1454710_at response, Spink2 (serine peptidase inhibitor, Kazal type 2): 2.39
- probe 1454780_at response, Galntl4 (UDP-N-acetyl-alpha-D-galactosamine:polypeptide N-acetylgalactosaminyltransferase-like 4): 0.42
- probe 1454877_at response, Sertad4 (SERTA domain containing 4): 0.40
